From PubChem BioAssay (NCI)
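Each compound was tested at five concentrations against cells in 96-well plates for 48 hours. The concentration for 50% growth inhibition is given as GI50. Definition used: TGI = concentration required for complete inhibition of growth.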

Legend:
Test in all cases: DTP human tumour cell line panel, 48 h
SK-MEL-28 melanoma = tested on: SK-MEL-28 melanoma
DLD-1 colon = tested on: DLD-1 colon
LXFL 529 NSCLC = tested on: LXFL 529 NSCLC
KM20L2 colon = tested on: KM20L2 colon
HL-60(TB) leukemia = tested on: HL-60(TB) leukemia
SF-295 CNS = tested on: SF-295 CNS
UO-31 renal = tested on: UO-31 renal
SNB-78 CNS = tested on: SNB-78 CNS
DMS 114 small cell lung = tested on: DMS 114 small cell lung

SMILES	TGI (SK-MEL-28 melanoma) [µM]	TGI (DLD-1 colon) [µM]	TGI (LXFL 529 NSCLC) [µM]	TGI (KM20L2 colon) [µM]	TGI (HL-60(TB) leukemia) [µM]	TGI (SF-295 CNS) [µM]	TGI (UO-31 renal) [µM]	TGI (SNB-78 CNS) [µM]	TGI (DMS 114 small cell lung) [µM]	GI50 (SK-MEL-28 melanoma) [µM]	GI50 (DLD-1 colon) [µM]	GI50 (LXFL 529 NSCLC) [µM]	GI50 (KM20L2 colon) [µM]	GI50 (HL-60(TB) leukemia) [µM]	GI50 (SF-295 CNS) [µM]	GI50 (UO-31 renal) [µM]	GI50 (SNB-78 CNS) [µM]	GI50 (DMS 114 small cell lung) [µM]
CCCCCCCCCCCCCCCCCCC1=C(O)C(=O)C=C(OC)C1=O	> 100	> 100	> 100	> 100	80.8	> 100	> 100	> 100	61.8	–	–	–	–	–	–	–	–	–
O=C1CC2CCN(C(=O)c3ccccc3)CC2CCN1 (configuration not stated)	> 100	> 100	> 100	> 100	> 100	> 100	> 100	> 100	> 100	–	–	–	–	–	–	–	–	–
COc1cc2c(cc1OC)C1Cc3cc(OC)c(OC)cc3N1CC2 (configuration not stated)	> 100	> 100	61.1	> 100	53.2	> 100	86	> 100	37.5	–	–	–	–	–	–	–	–	–
Cc1ccc(C)c(N2C(=O)C(=O)C(c3nc4ccccc4o3)/C(=N/N)C2=O)c1 (configuration not stated)	> 100	> 100	> 100	> 100	> 100	> 100	> 100	> 100	> 100	–	–	–	–	–	–	–	–	–
COc1cc(-c2nnc3n2NC=C(C(=O)O)S3)cc(OC)c1OC	> 100	> 79.9	> 100	> 100	> 73.4	> 100	> 100	> 100	> 70	–	–	–	–	–	–	–	–	–
Nc1ccc(C2=N/C(=C\c3cccc(N)c3)C(=O)O2)cc1	> 100	> 100	> 100	> 100	> 100	> 100	> 100	> 100	> 100	–	–	–	–	–	–	–	–	–
Cc1c(Cl)cccc1NC(=O)c1cccc([N+](=O)[O-])c1O	> 77	> 100	> 75.1	54.3	> 49.4	65	40.5	> 92.6	48.7	–	–	–	–	–	–	–	–	–
Cc1ccc(N2C(=O)N(c3ccc(C)cc3)C3(SC=NN3C)C2=O)cc1 (configuration not stated)	> 100	> 100	> 100	> 100	> 100	> 100	> 100	> 100	> 100	–	–	–	–	–	–	–	–	–
CCOc1ccc(N=Cc2c3ccccc3nc3ccccc23)cc1	> 100	> 100	> 100	> 100	77.2	> 100	> 100	> 100	> 100	–	–	–	–	–	–	–	–	–
COc1ccc2nc3cc(Cl)ccc3c(Sc3ccc(NC(C)=O)cc3)c2c1	38.7	> 24.1	> 23.5	> 42.1	52	> 51.2	> 33.4	62.1	14.1	–	–	–	–	–	–	–	–	–
NCCN.O=C([O-])[O-].O=C([O-])[O-].[Co+3].[K+]	> 100	> 100	> 100	> 100	> 100	> 100	> 100	> 100	> 100	> 100	> 100	> 100	> 100	> 100	> 100	> 100	> 100	> 100
CC12CCC(=O)N1c1cccnc1N2 (configuration not stated)	> 100	> 100	> 100	> 100	> 100	> 100	> 100	> 100	> 100	–	–	–	–	–	–	–	–	–
